Usually IC50 stands for the concentration that inhibits the measured activity by half. As a reminder, the inhibition is the percentage by which the read-out fell short of the control.

Like-named read-outs stand apart in the source and are kept apart here.

This is an account of results in patent publication US20230140290A1, “SALICYLAMIDE DERIVATIVES AND RELATED METHODS OF MAKING” (THE BOARD OF REGENTS OF THE UNIVERSITY OF TEXAS SY, priority 2020, published 2023).

Data set [1] deals with HAdV5-GFP. Conditions: read-out: IC50, inhibition of HAdV infection; Marrugal-Lorenzo et al. 2019; cited from earlier work.
In data set [2] the test system is HAdV5-GFP. Description: Plaque assay (inhibition of HAdV plaque formation). It counts as cell-based, HAdV-5. Conditions: for Selectivity index (SI): ratio of CC50 to IC50 in plaque assay; for inhibition at 10 µM: read-out: Plaque Assay (%) Inhibition (10 μM). Put shortly:
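Compounds were present in the post-infection mixture at 10 μM, or at 10 to 0.3 μM for dose-response. Infection used low MOI HAdV5-GFP (0.06 vp/cell) on 80-90% confluent cells, 2 h rocking at 37° C, then a PBS wash.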

Data set [3] can be described thus: Maximum tolerated dose (MTD). The settings on record: immunosuppressed Syrian hamster, intraperitoneal. As to the method: Maximum tolerated dose (MTD). […] Before dosing, compounds were diluted in 10% DMSO, 10% Cremophor EL and 80% sodium chloride physiological solution. […] At day 14 animals were sacrificed with a lethal dose of thiopental. All inoculations were done via intraperitoneal.

In data set [4] the test system is HAdV5. Description: HAdV-mediated endosome disruption (α-sarcin co-delivery assay). The settings on record: FIG. 11; A549, 5 μM, independent of virus concentration. Format: cell-based, HAdV-5.
In data set [5] the test system is HAdV5-GFP. Kind of data set: Entry assay (HAdV5-mediated GFP expression). The settings on record: for (%) Inhibition Entry Assay (50 μM): 48 h; for inhibition at 50 µM: A549, 48 h, read-out: (%) Inhibition Entry Assay (50 μM). Format: cell-based, HAdV-5. As for the experimental part:
Entry Assay. The anti-HAdV activity was measured in an entry assay using human A549 epithelial cells (3×10^5 cells/well in coming black wall, clear bottom 96-well plates) infected with HAdV5-GFP (2000 vp/cell) in the presence 50 μM of the candidates and in a dose-response assay. A standard infection curve was generated in parallel by infecting cells in the absence of compounds using serial 2-fold dilutions of virus. All reactions were done in triplicate. Cells, virus, and drugs were incubated for 48 h at 37° C. and 5% CO2.

Data set [6] relates to A549 cells. Kind of data set: Cytotoxicity assay (AlamarBlue). Conditions: read-out: CC50 (μM), cytotoxic concentration 50%; A549 cell line, 48 h. As for the experimental part:
(§1) Cytotoxicity Assay. The cytotoxicity of the compounds was analyzed by commercial kit AlamarBlue® (Invitrogen, Ref. DAL1025). A549 cells at a density of 5×10^3 cells per well in 96-well plates were seeded. […] Cells were then incubated at 37° C. for 48 h following the kit protocol. The cytotoxic concentration 50 (CC50) value was obtained using the statistical package GraphPad Prism. This assay was performed in duplicate.

Data set [7] concerns wild-type HAdV5. Description: HAdV DNA quantification by real-time PCR (DNA replication). It counts as cell-based, HAdV-5. The settings on record: FIG. 6A; 24 h; 10-fold plaque IC50. As for the experimental part:
DNA Quantification by Real-Time PCR. […] Infected cells were incubated 24 h at 37° C. in 500 μL of complete DMEM containing 25 μM of either compounds or the same volume of DMSO (positive control). All samples were done in duplicate. After 24 h of incubation at 37° C., DNA was purified from the cell lysate with the QIAamp DNA Mini Kit (QIAGEN, Valencia, Calif.) following the manufacturer's instructions. TaqMan primers and probes for a common region of the HAdV5 were designed with the GenScript Real-Time PCR (TaqMan) Primer Design software (GenScript). […] Real-time PCR mixtures consisted of 9.5 μL of the purified DNA, AQ1 and AQ2 at a concentration of 200 nM each and Probe at a concentration of 50 nM in a total volume of 25 μL. The PCR cycling protocol was 95° C. for 3 min followed by 40 cycles of 95° C. for 10 s and 60° C. for 30 s. Human glyceraldehyde-3-phosphate dehydrogenase (GAPDH) gene was used as internal control. Oligonucleotides sequences for GAPDH and conditions were those previously reported by Henke-Gendo et al. (2012).
For quantification, gene fragments from hexon, and GAPDH were cloned into the pGEM-T Easy vector (Promega) and known concentrations of template were used to generate a standard curve in parallel for each experiment. All assays were performed in thermal cycler LightCycler® 96 System (Roche).
(§2) HAdV DNA Quantification by Real-Time PCR. […] All samples were done in duplicate. After 24 h of incubation at 37° C., DNA was purified from the cell lysate with the E.Z.N.A.® Tissue DNA Kit (Omega Bio-tek, Norcross, Ga.) following the manufacturer's instructions. TaqMan primers and probes for a common region of the HAdV5 were designed with the GenScript Real-Time PCR (TaqMan) Primer Design software (GenScript). […] Real-time PCR mixtures consisted of 9.5 μL of the purified DNA, AQ1 and AQ2 at a concentration of 200 nM each and Probe at a concentration of 50 nM in a total volume of 25 μL. The PCR cycling protocol was 95° C. for 3 min followed by 40 cycles of 95° C. for 10 s and 60° C. for 30 s. Human glyceraldehyde-3-phosphate dehydrogenase (GAPDH) gene was used as internal control. Oligonucleotides sequences for GAPDH and conditions were those previously reported by Henke-Gendo et al. (2012).
as §2, with “DNA” for “HAdV DNA”

The test system of data set [8] is wild-type HAdV5. Description: Nuclear-associated HAdV genomes (real-time PCR). It counts as cell-based, HAdV-5. The settings on record: FIG. 5A; 45 min post-infection; 10-fold plaque IC50. As to the method:
(§3) Nuclear-Associated HAdV Genomes. The nuclear delivery of HAdV genomes was assessed by real-time PCR following nuclear isolation from infected cells. […] Forty-five minutes after infection, A549 cells were trypsinized and collected and then washed twice with PBS. Then, cytoplasmic and nuclear fractions were separated using a hypotonic buffer solution and NP-40 detergent. The cell pellet was resuspended in 500 μL of 1×hypotonic buffer (20 mM Tris-HCl pH 7.4, 10 mM NaCl, 3 mM MgCl2) and incubated for 15 min at 4° C. Then, 25 μL of NP-40 was added and the samples were vortexed. The homogenates were centrifuged for 10 min at 835 g at 4° C. Following the removal of the cytoplasmic fraction (supernatant), HAdV DNA was isolated from the nuclear fraction (pellet) and from the cytoplasmic fraction using the QIAamp DNA Mini Kit (QIAGEN, Valencia, Calif.).
as §3, with “E.Z.N.A.® Tissue” for “QIAamp”, “DNA” for “DNA Mini”, “(Omega Bio-tek, Norcross, Ga.).” for “(QIAGEN, Valencia, Calif.).”
On the technique in general: In qPCR the cycle at which signal appears reflects the starting amount.

The test system of data set [9] is HCMV. Kind of data set: HCMV DNA quantification by real-time PCR. Format: cell-based, human cytomegalovirus. The settings on record: HFF cells, 72 h, 10-fold plaque IC50 (niclosamide 5 μM). As for the experimental part: HCMV DNA Quantification by Real-Time PCR. […] Then, cells were incubated for 72 h at 37° C. and 5% CO2 and HCMV DNA was purified from the cell lysate using the QIAamp DNA Mini Kit (Qiagen, Valencia, Calif.) following the manufacturer's instructions. Real-time PCR primers, mixtures and protocols were the same as previously reported (Sanchez-Cespedes et al., J. Med. Chem. 2016, 59, 5432-5448).

Data set [10] in a line: Cytotoxicity assay (AlamarBlue). The settings on record: human, A549 cells. As to the method: as §1
In general terms: Resazurin is reduced to fluorescent resorufin, in cell work by metabolically active cells.

Data set [11] relates to HAdV5-GFP. Kind of data set: Time of addition assay. It counts as cell-based, HAdV-5. Conditions: FIG. 7; 10-fold plaque IC50. As for the experimental part: Time of Addition Curve Study. […] Parallel samples of HAdV-5 were incubated with or without the selected derivatives on ice for 1 h. […] The derivatives were added at the indicated time points before or during this incubation. After a total of 2 h at 37° C., cells were incubated for an additional 48 h at 37° C. and 5% CO2 before being analyzed for GFP expression using the Typhoon 9410 imager (GE Healthcare Life Sciences) as above.
Time of Addition Assay. […] Parallel samples of HAdV-5 were incubated with or without the selected derivatives on ice for 1 h. […] The derivatives were added at the indicated time points before or during this incubation. After a total of 2 h at 37° C., cells were incubated for an additional 48 h at 37° C. and 5% CO2 before being analyzed for GFP expression using the Typhoon 9410 imager (GE Healthcare Life Sciences) as above.
Time of Addition Assay. […] Parallel samples of HAdV-5 were incubated with or without the selected compounds on ice for 1 h. […] Compounds 153 and 161 were added at the indicated time points before or during this incubation. After a total of 2 h at 37° C., cells were incubated for an additional 48 h at 37° C. and 5% CO2 before being analyzed for GFP expression using the Typhoon 9410 imager (GE Healthcare Life Sciences) as above.

Setting [12] is: read-out: Plaque Assay IC50 (μM), HAdV5-GFP, low MOI, 293β5 cell line.
[13] abbreviates: A549, read-out: IC50 Entry Assay (μM), HAdV5-GFP, high MOI, A549 cell line.

As to `O=C(Nc1ccc([N+](=O)[O-])cc1Cl)c1cc(Cl)ccc1O` [Compound 6, niclosamide, reference compound], the IC50 in data set [1] was 0.6 µM; in data set [2] (HAdV5-GFP, low MOI, 293β5 cell line, read-out: Plaque Assay IC50), 0.6 µM; in [5] (HAdV5-GFP, high MOI, A549 cell line, read-out: IC50 Entry Assay), 1.22 ± 0.44 µM. In [2] (HAdV5-GFP, 10 μM, low MOI, 293β5 cell line), the “Plaque Assay (%) Inhibition (10 μM)” value was found to be 100 ± 0%. Also, the “doses showing high toxicity” value in data set [3] is listed as at least 5 mg/kg. Besides, the “rate of HPG incorporation compared to a control without α-sarcin” value in [4] is “under 50%”. Moreover, the “(%) Inhibition Entry Assay (50 μM)” value is on record as 100.0 ± 0.0% in data set [5] (HAdV5-GFP, high MOI, A549 cell line) and 100 ± 0% in data set [5] (HAdV5-GFP, high MOI, A549 cell line, listed as 73, 50 µM).
In the case of `O=C(Nc1ccc(NC2CCCC2)cc1Cl)c1cc(Cl)ccc1O` [Compound 78, 5-Chloro-N-(2-chloro-4-(cyclopentylamino)phenyl)-2-hydroxybenzamide], the CC50 in [6] stood at 92.9 ± 7.1 µM. Also, the “inhibition of HAdV-5 DNA replication (qPCR)” value in data set [7] is given as “moderate inhibition”. For the same molecule, in data set [2], the “Selectivity index (SI)” value was 185.8 and the inhibition at 10 µM turned out to be 100%. For the same molecule, the IC50 in data set [2] (setting [12]) turned out to be 0.5 ± 0.1 µM. The “amount of nuclear-associated HAdV genomes versus DMSO” value in data set [8] was “no significant differences”. In addition, the “decrease of total HCMV DNA compared to the DMSO control” value in data set [9] is listed as “no significant inhibition”. Also, in data set [5], the inhibition at 50 µM is 27.5 ± 3.8%. Further, the IC50 in [5] (setting [13]) was above 50 µM.
For `CC(C)(C)OC(=O)N1CCC(CNc2ccc(NC(=O)c3cc(Cl)ccc3O)c(Cl)c2)CC1` [Compound 126, tert-Butyl 4-(((3-chloro-4-(5-chloro-2-hydroxybenzamido)phenyl)amino)methyl)piperidine-1-carboxylate], the CC50 at 48 h in data set [10] is 95 µM. Further, the “anti-HAdV activity when added between 10 and 20 min p.i.” value in data set [11] is recorded as “loses its anti-HAdV activity”. Further, in data set [2], the “Selectivity index (SI)” value is on record as 102.2 and the inhibition at 10 µM amounted to 97.8 ± 1.4%. For the same molecule, in data set [2] (setting [12]), the IC50 was 0.93 µM. Moreover, in [8], the “amount of nuclear-associated HAdV genomes versus DMSO” value is on record as “partially inhibited”. The inhibition at 50 µM in data set [5] was 67.6%. Further, in data set [5] (setting [13]), the IC50 was below 3.13 µM.
